Test system: methacholine-induced bronchoconstriction in guinea pigs
Assay: Inhibition of methacholine-induced bronchoconstriction in anaesthetized, mechanically ventilated guinea pigs
Assay type: in vivo, guinea pig
Settings: for Effect on methacholine-induced bronchospasm (in words): versus placebo, ANOVA and Dunnett's test, ROFLUMILAST 4 mg/kg intratracheally, tiotropium-bromide 1 μg/kg i.v.
Procedure: Inhibition of Methacholine-Induced Bronchoconstriction in Guinea Pigs by ROFLUMILAST in combination with tiotropium-bromide
To assess the inhibitory effect of tiotropium-bromide, ROFLUMILAST, and the combination of both compounds on methacholine-induced bronchoconstriction in anaesthetized, mechanically ventilated guinea pigs.
Male Dunkin Hartley guinea pigs; body weight 350-450 g when performing the experiments.
75 min before methacholine-induced bronchospasm (at −75 min) animals were anaesthetized with urethane i.p. (1.2 g/kg). At −55 min for I.v. injections the right jugular vein and for ventilation the trachea was cannulated. At −45 min NaCl 0.9% or tiotropium-bromide was administered I.v. (1 μg/kg). At −30 min lactose (10 mg/kg) or ROFLUMILAST (4 mg/kg) mixed with lactose was administered intratracheally by a dry powder aerolizer. At −10 min pancuronium-bromide (1.5 mg/kg) was administered I.v. to abolish spontaneous breathing. Animals were mechanically ventilated with 60 breath/min and a tidal volume of 7 ml/kg. Dynamic lung compliance (COM) and airway conductance (CON) were calculated with the help of a computer system from airflow and ventilation pressure signals. At t=0 min methacholine was administered i.v. (60 μg/kg) to induce bronchoconstriction.
COM and CON were determined up to 120 s after methacholine-induced bronchospasm. AUCs for 0 to 120s were determined. Inhibition was calculated based on the AUC data. Data are shown as mean ±SEM. Results were taken to be significant if p<0.05 versus placebo (ANOVA and Dunnett's multiple comparison test)

[1] = male Dunkin Hartley guinea pigs, methacholine 60 μg/kg i.v., ROFLUMILAST 4 mg/kg intratracheally at -30 min, tiotropium-bromide 1 μg/kg i.v. at -45 min

Row | SMILES | Inhibition of methacholine-induced airway conductance (CON) decrease, based on AUC 0 to 120 s [1] [%] | Effect on methacholine-induced bronchospasm (in words) | Inhibition of methacholine-induced dynamic lung compliance (COM) decrease, based on AUC 0 to 120 s [1] [%]
1 | O=C(Nc1c(Cl)cncc1Cl)c1ccc(OC(F)F)c(OCC2CC2)c1 [ROFLUMILAST, 3-cyclopropylmethoxy-4-difluoromethoxy-N-(3,5-dichloropyrid-4-yl)benzamide] | 5.6 | no significant effect | –
2 | C[N+]1(C)[C@@H]2C[C@@H](OC(=O)C(O)(c3cccs3)c3cccs3)C[C@H]1[C@@H]1O[C@@H]12 [tiotropium-bromide] | 5.9 | no significant effect | 12
